# Earlier results, collected in PubChem BioAssay AID1259409 (Chemical Carcinogenesis Research Information System (CCRIS), 2018).
# System: rodent chemically induced tumor inhibition, incidence and multiplicity
# Experiment: CCRIS tumor inhibitor studies
# Details: for outcome: Carcinogen: 7,12-Dimethylbenz[a]anthracene, 57-97-6 and 12-O-Tetradecanoylphorbol-13-acetate, Dose [Inhibitor]: 50 ug/ml in acetone by topical application starting on the 16th wk and continuing to end of study (study duration: 30 wk, Route [Inhibitor]: Skin, Species: Mouse, Strain/Sex: Albino/Sex not given, Target Tissue: Type of Lesion: Skin, Dose [Carcinogen]: DMBA in acetone, 100 ug/ml, single topical dose, TPA in acetone, 10 ug/ml, topical administration twice a wk for 15 wk
compound,measurement,setting,value
CC1=C(/C=C/C(C)=C/C=C/C(C)=C\C(=O)O)C(C)(C)CCC1,"tumour outcome (control, treated, inhibition, significance)","Carcinogen: 1,2-DIMETHYLHYDRAZINE, 540-73-8, Dose [Inhibitor]: 67 µM/G DIET, Route [Inhibitor]: ORAL, Species: RAT, Strain/Sex: SPRAGUE-DAWLEY/MALE, Target Tissue: Type of Lesion: COLON: TUMOR, Dose [Carcinogen]: 30 MG/KG BW 1/WK FOR 5 WK, Promoter: NONE USED","20/20 (100%), 8/20 (40%), 60%, not calculated"
same,"tumour outcome (control, treated, inhibition, significance)","Carcinogen: 1,2-DIMETHYLHYDRAZINE, 5400-73-8, Dose [Inhibitor]: 67 UG/G DIET FED SIMULTANEOUSLY DURING CARCINOGEN TREATMENT (STUDY DURATION: 46 WK), Route [Inhibitor]: ORAL, Species: RAT, Strain/Sex: WISTAR/FEMALE, Target Tissue: Type of Lesion: COLON: ADENOCARCINOMA, Dose [Carcinogen]: 15 MG/KG BW/WK FOR 28 WK, Promoter: NONE USED","8/12 (67%), 5/10 (50%), 25%, not significant"
same,"tumour outcome (control, treated, inhibition, significance)","Carcinogen: 1,2-DIMETHYLHYDRAZINE, 5400-73-8, Dose [Inhibitor]: 67 UG/G DIET FED SIMULTANEOUSLY DURING CARCINOGEN TREATMENT (STUDY DURATION: 46 WK), Route [Inhibitor]: ORAL, Species: RAT, Strain/Sex: WISTAR/FEMALE, Target Tissue: Type of Lesion: SMALL INTESTINE: ADENOCARCINOMA, Dose [Carcinogen]: 15 MG/KG BW/WK FOR 28 WK, Promoter: NONE USED","8/12 (67%), 9/10 (90%), -34%, not significant"
same,"tumour outcome (control, treated, inhibition, significance)","Carcinogen: 3-METHYLCHOLANTHRENE, 56-49-5, Dose [Inhibitor]: 3 MG IN 0.1 ML ACETONE STARTING 2 WK AFTER START OF CARCINOGEN TREATMENT AND APPLIED 2/WK DURING WK 3-5 OF THE STUDY AND, Route [Inhibitor]: DERMAL, Species: MOUSE, Strain/Sex: SWISS/FEMALE, Target Tissue: Type of Lesion: SKIN: CARCINOMA, Dose [Carcinogen]: 0.1 ML OF 0.3% DISSOLVED IN ACETONE APPLIED 2/WK FIRST 5 WK THEN 1/WK FOR WK 6-9 FOLLOWED BY NO FURTHER TREATMENT THROUG, Promoter: NONE USED","5/19 (26%), 2/20 (10%), 62%, not calculated"
same,"tumour outcome (control, treated, inhibition, significance)","Carcinogen: 3-METHYLCHOLANTHRENE, 56-49-5, Dose [Inhibitor]: 3 MG IN 0.1 ML ACETONE STARTING 2 WK AFTER START OF CARCINOGEN TREATMENT AND APPLIED 2/WK DURING WK 3-5 OF THE STUDY AND, Route [Inhibitor]: DERMAL, Species: MOUSE, Strain/Sex: SWISS/FEMALE, Target Tissue: Type of Lesion: SKIN: PAPILLOMA, Dose [Carcinogen]: 0.1 ML OF 0.3% DISSOLVED IN ACETONE APPLIED 2/WK FIRST 5 WK THEN 1/WK FOR WK 6-9 FOLLOWED BY NO FURTHER TREATMENT THROUG, Promoter: NONE USED","9/19 (47%), 4/20 (20%), 57%, not calculated"
same,outcome,"16561-29-8, 16561-29-8","malignant lesions: 4/20 (20%), 4/20 (20%), not significant"
same,outcome,"16561-29-8, 16561-29-8, Promoter: None","malignant lesions: 5/20 (20%), 4/20 (20%), not significant"
same,"tumour outcome (control, treated, inhibition, significance)","Carcinogen: AZOXYMETHANE, 25843-45-2, Dose [Inhibitor]: 50 MG/KG DIET DAILY STARTING SIMULTANEOUSLY WITH CARCINOGEN TREATMENT AND CONTINUING THROUGH END OF STUDY (STUDY DURATIO, Route [Inhibitor]: ORAL, Species: RAT, Strain/Sex: SPRAGUE-DAWLEY/MALE, Target Tissue: Type of Lesion: LARGE INTESTINE: MALIGNANT TUMOR, Dose [Carcinogen]: 8 MG/KG BW 1/WK FOR 8 WK, Promoter: NONE USED","90%, 90%, 0%, not significant"
same,"tumour outcome (control, treated, inhibition, significance)","Carcinogen: AZOXYMETHANE, 25843-45-2, Dose [Inhibitor]: 50 MG/KG DIET DAILY STARTING SIMULTANEOUSLY WITH CARCINOGEN TREATMENT AND CONTINUING THROUGH END OF STUDY (STUDY DURATIO, Route [Inhibitor]: ORAL, Species: RAT, Strain/Sex: SPRAGUE-DAWLEY/MALE, Target Tissue: Type of Lesion: SMALL INTESTINE: MALIGNANT TUMOR, Dose [Carcinogen]: 8 MG/KG BW 1/WK FOR 8 WK, Promoter: NONE USED","90%, 83%, 8%, not significant"
same,"tumour outcome (control, treated, inhibition, significance)","Carcinogen: AZOXYMETHANE, 25843-45-2, Dose [Inhibitor]: 50 MG/KG IN DIET DAILY FOR 26 WK STARTING SIMULTANEOUSLY WITH CARCINOGEN TREATMENT (STUDY DURATION: 26 WK), Route [Inhibitor]: ORAL, Species: RAT, Strain/Sex: SPRAGUE-DAWLEY/MALE, Target Tissue: Type of Lesion: LARGE INTESTINE: MALIGNANT TUMOR, Dose [Carcinogen]: 8 MG/KG BW 1/WK FOR 8 WK, Promoter: NONE USED","90%, 90%, 0%, not significant"
same,"tumour outcome (control, treated, inhibition, significance)","Carcinogen: AZOXYMETHANE, 25843-45-2, Dose [Inhibitor]: 50 MG/KG IN DIET DAILY FOR 26 WK STARTING SIMULTANEOUSLY WITH CARCINOGEN TREATMENT (STUDY DURATION: 26 WK), Route [Inhibitor]: ORAL, Species: RAT, Strain/Sex: SPRAGUE-DAWLEY/MALE, Target Tissue: Type of Lesion: SMALL INTESTINE: TUMOR, Dose [Carcinogen]: 8 MG/KG BW 1/WK FOR 8 WK, Promoter: NONE USED","90%, 83%, 8%, not significant"
same,"tumour outcome (control, treated, inhibition, significance)","Carcinogen: BENZO[A]PYENE, 50-32-8, Dose [Inhibitor]: 17 NMOL 2/WK 0.5 HR BEFORE EACH PROMOTER APPLICATION FOR 24 WK STARTING 7 D AFTER CARCINOGEN APPLICATION (STUDY DURATION, Route [Inhibitor]: DERMAL, Species: MOUSE, Strain/Sex: SENCAR, Target Tissue: Type of Lesion: SKIN: PAPILLOMA, Dose [Carcinogen]: 400 NMOL ONCE, Promoter: ANTHRALIN, 1143-38-0","73%, 83%, -14%, not significant"
same,"tumour outcome (control, treated, inhibition, significance)","Carcinogen: BENZO[A]PYENE, 50-32-8, Dose [Inhibitor]: 34 NMOL ONCE 0.5 HR BEFORE CARCINOGEN APPLICATION (STUDY DURATION: 25 WK), Route [Inhibitor]: DERMAL, Species: MOUSE, Strain/Sex: CD-1/FEMALE, Target Tissue: Type of Lesion: SKIN: PAPILLOMA, Dose [Carcinogen]: 200 NMOL IN 0.2 ML ACETONE ONCE 0.5 HR AFTER AGENT TREATMENT, Promoter: 12-O-TETRADECANOYLPHORBOL-13-ACETATE, 16561-29-8","90%, 98%, -9%, not significant"
same,"tumour outcome (control, treated, inhibition, significance)","Carcinogen: BENZO[A]PYRENE, 50-32-8, Dose [Inhibitor]: 0, 240 MG/KG OF DIET FOR 6 WK (STUDY DURATION: 9 WK), Route [Inhibitor]: ORAL, Species: MOUSE, Strain/Sex: NIGP(S)/FEMALE, Target Tissue: Type of Lesion: LUNG: ADENOMA, Dose [Carcinogen]: 0.5 MG INJECTED IN THE SCAPULAR REGION OF NEWBORN MICE ONCE, Promoter: NONE USED","35%, 55%, -57%, not calculated"
same,"tumour outcome (control, treated, inhibition, significance)","Carcinogen: BENZO[A]PYRENE, 50-32-8, Dose [Inhibitor]: 0, 240 MG/KG OF DIET FOR 6 WK (STUDY DURATION: 9 WK), Route [Inhibitor]: ORAL, Species: MOUSE, Strain/Sex: NIGP(S)/MALE, Target Tissue: Type of Lesion: LUNG: ADENOMA, Dose [Carcinogen]: 0.5 MG INJECTED IN THE SCAPULAR REGION OF NEWBORN MICE ONCE, Promoter: NONE USED","48%, 42%, 13%, not calculated"
same,"tumour outcome (control, treated, inhibition, significance)","Carcinogen: N,N-DIMETHYLNITROSAMINE, 62-75-9, Dose [Inhibitor]: 240 MG/KG OF DIET DAILY FOR 3 WK STARTING 2 D AFTER CARCINOGEN TREATMENT AT 6 WK OF AGE AND THEN OBSERVED UNTIL DEATH (S, Route [Inhibitor]: ORAL, Species: RAT, Strain/Sex: WISTAR/FEMALE, Target Tissue: Type of Lesion: KIDNEY: MESENCHYMAL TUMOR, Dose [Carcinogen]: 40 MG/KG BW ONCE, Promoter: NONE USED","22/27 (82%), 27/32 (84%), -2%, not significant"
same,"tumour outcome (control, treated, inhibition, significance)","Carcinogen: N,N-DIMETHYLNITROSAMINE, 62-75-9, Dose [Inhibitor]: 240 MG/KG OF DIET DAILY FOR 3 WK STARTING 2 D AFTER CARCINOGEN TREATMENT AT 6 WKOF AGE AND THEN OBSERVED UNTIL DEATH (ST, Route [Inhibitor]: ORAL, Species: RAT, Strain/Sex: WISTAR/FEMALE, Target Tissue: Type of Lesion: KIDNEY: EPITHELIAL TUMOR (ADENOMA, ADENOCARCINOMA), Dose [Carcinogen]: 40 MG/KG BW ONCE, Promoter: NONE USED","13/27 (48%), 17/32 (53%), -10%, not significant"
same,"tumour outcome (control, treated, inhibition, significance)","Carcinogen: N,N-DIMETHYLNITROSAMINE, 62-75-9, Dose [Inhibitor]: 240 MG/KG OF DIET DAILY FOR 10 WK STARTING 2 D AFTER CARCINOGEN TREATMENT AT 6 WK OF AGE AND THEN OBSERVED UNTIL DEATH (, Route [Inhibitor]: ORAL, Species: RAT, Strain/Sex: WISTAR/FEMALE, Target Tissue: Type of Lesion: KIDNEY: EPITHELIAL TUMOR (ADENOMA, ADENOCARCINOMA), Dose [Carcinogen]: 40 MG/KG BW ONCE, Promoter: NONE USED","13/27 (48%), 11/29 (38%), 21%, not significant"
same,"tumour outcome (control, treated, inhibition, significance)","Carcinogen: N,N-DIMETHYLNITROSAMINE, 62-75-9, Dose [Inhibitor]: 240 MG/KG OF DIET DAILY FOR 26 WK STARTING 2 D AFTER CARCINOGEN TREATMENT AT 6 WK OF AGE AND THEN OBSERVED UNTIL DEATH (, Route [Inhibitor]: ORAL, Species: RAT, Strain/Sex: WISTAR/FEMALE, Target Tissue: Type of Lesion: KIDNEY: EPITHELIAL TUMOR (ADENOMA, ADENOCARCINOMA), Dose [Carcinogen]: 40 MG/KG BW ONCE, Promoter: NONE USED","13/27 (48%), 11/21 (52%), -8%, not significant"
same,"tumour outcome (control, treated, inhibition, significance)","Carcinogen: N,N-DIMETHYLNITROSAMINE, 62-75-9, Dose [Inhibitor]: 240 MG/KG OF DIET DAILY FOR 26 WK STARTING 2 D AFTER CARCINOGEN TREATMENT AT 6 WK OF AGE AND THEN OBSERVED UNTIL DEATH (, Route [Inhibitor]: ORAL, Species: RAT, Strain/Sex: WISTAR/FEMALE, Target Tissue: Type of Lesion: KIDNEY: MESENCHYMAL TUMOR, Dose [Carcinogen]: 40 MG/KG BW ONCE, Promoter: NONE USED","22/27 (82%), 21/21 (100%), -22%, not significant"
same,"tumour outcome (control, treated, inhibition, significance)","Carcinogen: N-(4-(5-NITRO-2-FURYL)-2-THIAZOLYL)FORMAMIDE, 24554-26-5, Dose [Inhibitor]: 120 MG/KG DIET DAILY STARTING 1 WK AFTER COMPLETION OF CARCINOGEN TREATMENT AND CONTINUING UNTIL END OF STUDY (STUDY DUR, Route [Inhibitor]: ORAL, Species: RAT, Strain/Sex: F344/FEMALE, Target Tissue: Type of Lesion: URINARY BLADDER: CARCINOMA, Dose [Carcinogen]: 2 G/KG DIET DAILY FOR 10 WK, Promoter: NONE USED","36/100 (36%), 42/100 (42%), -17%, p 0.135"
